Reference: paper PMC12133982, “Predominant T-cell epitopes of SARS-CoV-2 restricted by multiple prevalent HLA-B and HLA-C allotypes in Northeast Asia” (Frontiers in Immunology, 2025)
Peptide text beside a SMILES is read from it.

How the values were obtained:
HLA-B5201 = HLA-B5201 (Homo sapiens, UniProt P01889, A329T/A93T/A95T/C349S/D138N/D201E/D98Y/E187L/E204Q/E69T/G107R/I218V/K202T/L105A/L119W/N104I/N87E/Q94N/R106L/R155S/R180L/S101N/S121T/S35A/S48A/V306I/V36M/Y195H/Y91S); test: Competitive peptide binding assay, CIR-B5201; details: HMy2.CIR-B5201 cells, reference Cy5-[…], class from inhibition at 5 and 15 μM, flow cytometry MFI; read-out: Binding affinity with HLA-B5201
Experimental: (§1) Then, competitive peptide binding assays were performed.

HLA-B1502 = HLA-B1502 (Homo sapiens, UniProt P01889, A329T/A93T/A95T/C349S/D201E/D98Y/E187L/E204Q/E69M/E70A/H137Y/K202T/L119I/Q94N/R155S/R180L/S121R/S35A/S48A/T118I/V306I/V36M/Y140S/Y91S); test: Competitive peptide binding assay, CIR-B1502; details: HMy2.CIR-B1502 cells, reference Cy5-[…], class from inhibition at 5 and 15 μM, flow cytometry MFI; read-out: Binding affinity with HLA-B1502
Experimental: as §1

HLA-B5801 = HLA-B5801 (Homo sapiens, UniProt P01889, A329T/C349S/D201E/D98Y/E176V/E187L/E204Q/E69T/G107R/I218V/I90N/K202T/L105A/L119I/N104I/N87E/Q89R/Q94S/R106L/R155S/R180L/R86G/S101N/S121R/S35A/S48A/T118I/V127L/V306I/V36M/Y140S/Y91M); test: Competitive peptide binding assay, CIR-B5801; details: HMy2.CIR-B5801 cells, reference Cy5-[…], class from inhibition at 5 and 15 μM, flow cytometry MFI; read-out: Binding affinity with HLA-B5801
Experimental: as §1

HLA-B0702 = molecular target: T1, HLA-B0702 (Homo sapiens, UniProt P01889); test: Competitive peptide binding assay, CIR-B0702; details: HMy2.CIR-B0702 cells, reference Cy5-[…], class from inhibition at 5 and 15 μM, flow cytometry MFI
T1 construct: expressed in transfected cells; host or cells: HMy2.CIR
Experimental: as §1

HLA-B5101 = HLA-B5101 (Homo sapiens, UniProt P01889, A329T/A93T/A95T/C349S/D138N/D201E/D98Y/E187L/E204Q/E69T/G107R/I218V/K202T/L105A/L119W/N104I/Q94N/R106L/R155S/R180L/S101N/S121T/S35A/S48A/V306I/V36M/Y195H/Y91F); test: Competitive peptide binding assay, CIR-B5101; details: HMy2.CIR-B5101 cells, reference Cy5-[…], class from inhibition at 5 and 15 μM, flow cytometry MFI; read-out: Binding affinity with HLA-B5101
Experimental: as §1

HLA-B4601 = HLA-B4601 (Homo sapiens, UniProt P01889, A329T/A93R/C349S/D201E/E100V/E187L/E204Q/E69M/E70A/I90K/K202T/N87E/R155S/R180W/S121R/S35A/S48A/V306I/V36M/Y140S); test: Competitive peptide binding assay, CIR-B4601; details: HMy2.CIR-B4601 cells, reference Cy5-[…], class from inhibition at 5 and 15 μM, flow cytometry MFI; read-out: Binding affinity with HLA-B4601
Experimental: as §1

HLA-B4801 = HLA-B4801 (Homo sapiens, UniProt P01889, A269T/A93T/A95T/D138N/D98Y/E176V/N87E/Q94N/R180L/T167S/W171L/Y91S); test: Competitive peptide binding assay, CIR-B4801; details: HMy2.CIR-B4801 cells, reference Cy5-[…], class from inhibition at 5 and 15 μM, flow cytometry MFI; read-out: Binding affinity with HLA-B4801
Experimental: as §1

HLA-B1501 = HLA-B1501 (Homo sapiens, UniProt P01889, A329T/A93T/A95T/C349S/D201E/D98Y/E187L/E204Q/E69M/E70A/K202T/N87E/Q94N/R155S/R180W/S121R/S35A/S48A/V306I/V36M/Y140S/Y91S); test: Competitive peptide binding assay, CIR-B1501; details: HMy2.CIR-B1501 cells, reference Cy5-[…], class from inhibition at 5 and 15 μM, flow cytometry MFI; read-out: Binding affinity with HLA-B1501
Experimental: as §1

HLA-B1302 = HLA-B1302 (Homo sapiens, UniProt P01889, A65T/A93T/A95T/D138N/D201E/D98Y/E176V/E204Q/E69M/E70A/G107R/K202T/L105A/L119W/N104T/N87E/Q94N/R106L/R155S/R169L/R180L/S101N/S121T/S35A/S48T/V127L/V36M/Y140L/Y91S); test: Competitive peptide binding assay, CIR-B1302; details: HMy2.CIR-B1302 cells, reference Cy5-MMWYWGPSL, class from inhibition at 5 and 15 μM, flow cytometry MFI; read-out: Binding affinity with HLA-B1302
Experimental: as §1

Which results are given for `CC[C@H](C)[C@H](NC(=O)CNC(=O)[C@H](CC(=O)O)NC(=O)[C@H](CCCCN)NC(=O)[C@H](CC(N)=O)NC(=O)[C@H](C)NC(=O)CN)C(=O)N[C@H](C(=O)N[C@@H](Cc1c[nH]c2ccccc12)C(=O)O)[C@@H](C)CC` [Epitope Y301] (H-GANKDGIIW-OH; N-terminus and C-terminus assumed)?
IC50 (HLA-B5201): > 15 µM; IC50 (HLA-B1502): > 15 µM; IC50 (HLA-B5801): < 5 µM; IC50 (HLA-B0702): 5 to 15 µM; IC50 (HLA-B5101): > 15 µM; IC50 (HLA-B4601): 5 to 15 µM; IC50 (HLA-B4801): > 15 µM; IC50 (HLA-B1501): > 15 µM; IC50 (HLA-B1302): > 15 µM
